Measured values: ChEMBL document CHEMBL5137099, “Discovery of Novel cccDNA Reducers toward the Cure of Hepatitis B Virus Infection” (J Med Chem, 2022)
pIC50: −log10 of the molar value. Converted amounts (≈) assume the structure as drawn.

Columns and labels:
[1] = system: Hepatitis B virus; assay: Antiviral activity against HBV infected in human HepG2 cells assessed as reduction in HBeAg secretion incubated for 5 days by counter screen assay; format: functional, organism-based; conditions: HepG2, 120 h
[2] = Cytotoxicity against human HepDES19 cells assessed as reduction in cell viability measured after 5 days by CCK-8 assay; format: toxicity, cell-based; conditions: time 5 day
[3] = system: Hepatitis B virus; assay: Antiviral activity against HBV infected in human HepDES19 cells assessed as reduction in HBV cccDNA production by measuring inhibition of HBeAg secretion incubated for 5 days by ELISA; format: functional, organism-based; conditions: HepDES19, 120 h
[4] = Therapeutic index, ratio of CC50 for cytotoxicity against human HepDES19 cells assessed as reduction in cell viability measured after 5 days by CCK-8 assay to IC50 for antiviral activity against HBV infected in human HepDES19 cells assessed as reduction in HBV cccDNA production by measuring inhibition of HBeAg secretion incubated for 5 days by ELISA; format: toxicity, cell-based; conditions: time 5 day, read-out: Ratio CC50/IC50
[5] = Aqueous solubility of the compound; format: physicochemical; conditions: buffer
[6] = Permeability of the compound by PAMPA analysis; format: ADME; conditions: read-out: permeability
[7] = Octanol-aqueous buffer distribution coefficient, log D of the compound at pH 7.4 by CAMDIS assay; format: physicochemical
[8] = Metabolic stability in human microsomes assessed as clearance; format: ADME, Microsome; conditions: read-out: CLH

SMILES	pIC50 [3]	solubility [5] [µg/mL]	Papp [6] [×10⁻⁶ cm/s]	logD [7]	CLint scaled [8] [mL/min/kg]	pIC50 [1]	CC50 at 120 h [2] [µM]	selectivity ratio at 120 h [4]
COc1ccccc1C(=O)Nc1ccc2c(=O)c3cccc(F)c3oc2c1	4.07	< 1	–	–	–	< 4.30	> 100	> 1
O=C(Nc1ccc2c(=O)c3cccc(F)c3oc2c1)c1ccccc1O	5.17	< 1	–	–	–	< 4.30	35.1	5
CC1(C(=O)O)CCN(c2ccc3c(=O)c4cccc(Cl)c4oc3c2)C1 (configuration not stated)	5.76	–	2.03	1.73	–	< 4.30	–	–
O=C(O)C1CCN(c2cc3oc4c(Cl)cccc4c(=O)c3cn2)C1 (configuration not stated)	5.39	> 395	0.96	< -0.5	–	< 4.30	–	–
O=C(O)C1CCN(c2ccc3c(=O)c4c(O)ccc(Cl)c4oc3c2)C1 (configuration not stated)	5.76	200 (≈ 556 µM)	0.53	1.71	–	< 4.30	–	–
CCN(CC)c1ccc2c(=O)c3cccc(Cl)c3oc2c1	5.78	< 1	0.54	–	20.3	< 4.30	–	–
Cc1ccc(Cl)c2oc3cc(N4CCC(C(=O)O)C4)ccc3c(=O)c12 (configuration not stated)	5.95	252 (≈ 704 µM)	0.59	1.75	–	< 4.30	–	–
O=C1CCCN1c1ccc2c(=O)c3cccc(F)c3oc2c1	6.08	< 1	2.09	–	22	< 4.30	–	–
O=c1c2ccc(N3CCOCC3)cc2oc2c(F)cccc12	5.68	< 1	1.8	–	20.8	< 4.30	–	–
CN1CCN(c2ccc3c(=O)c4cccc(F)c4oc3c2)CC1	4.79	27 (≈ 86.4 µM)	0.08	–	18	< 4.30	–	–

More lines, main results first:

pIC50 [3]	solubility [5] [µg/mL]	Papp [6] [×10⁻⁶ cm/s]	logD [7]	CLint scaled [8] [mL/min/kg]	SMILES	pIC50 [1]	CC50 at 120 h [2] [µM]	selectivity ratio at 120 h [4]
6.31	–	–	–	–	Cn1ccnc1C(=O)Nc1ccc2c(=O)c3cccc(F)c3oc2c1	< 4.30	> 50	> 102
< 4.30	> 415	0.68	0.47	–	COc1ccc(Cl)c2oc3cc(N4CCC(C(=O)O)C4)ccc3c(=O)c12 (configuration not stated)	< 4.30	–	–
5.54	330 (≈ 851 µM)	0.7	0.93	–	CCOc1ccc(Cl)c2oc3cc(N4CCC(C(=O)O)C4)ccc3c(=O)c12 (configuration not stated)	< 4.30	–	–
5.58	< 1	–	–	–	O=C(Nc1ccc2c(=O)c3cccc(F)c3oc2c1)c1ccccc1Cl	< 4.30	> 100	> 38
5.39	< 1	–	–	–	O=C(Nc1ccc2c(=O)c3ccccc3oc2c1)c1ccccc1F	< 4.30	> 50	> 13
5.95	< 1	1.59	1.95	–	O=C(O)C1CCN(c2cc3oc4c(Cl)cccc4c(=O)c3cc2Cl)C1 (configuration not stated)	< 4.30	–	–
5.94	< 1	–	–	–	O=C(Nc1ccc2c(=O)c3cccc(F)c3oc2c1)c1ccncc1	< 4.30	> 100	> 134
5.08	> 430	–	< -0.5	–	N#Cc1cc2c(=O)c3cccc(Cl)c3oc2cc1N1CCC(C(=O)O)C1 (configuration not stated)	< 4.30	–	–
< 4.00	30 (≈ 87.3 µM)	8.64	–	6.7	O=C(O)c1cc2c(=O)c3cccc(Cl)c3oc2cc1N1CCCC1	< 4.30	–	–
5.12	73 (≈ 234 µM)	1.64	–	6.2	O=c1c2ccc(N3CCCCCC3)cc2oc2c(F)cccc12	< 4.30	–	–
4.57	> 510	1.78	1.26	–	O=C(O)C1(C(F)(F)F)CCN(c2ccc3c(=O)c4cccc(Cl)c4oc3c2)C1 (configuration not stated)	< 4.30	–	–
